Read-outs that look alike come from different tables or passages of the source. Starred links: 1 amine or outer side, 2 acyl side, 3 side chain; linkers in the order of their positions; H or OH if unused. Non-standard residues stand in square brackets, D forms with d. Residues, ends and D or L forms follow the SMILES beside them. Groups on a side chain read outwards from the residue. *: point of attachment. C20 diacid = O=C(O)CCCCCCCCCCCCCCCCCCC(=O)*; C18 diacid = O=C(O)CCCCCCCCCCCCCCCCC(=O)*; Dip = N[C@H](C(=O)O)C(c1ccccc1)c1ccccc1; γGlu = O=C(O)[C@H](CCC(=O)[*:2])N[*:1]; Stearoyl = CCCCCCCCCCCCCCCCCC(=O)*; αMeF = C[C@](N)(Cc1ccccc1)C(=O)O; PEG2 = NCCOCCOCCC(=O)O; AEEA = NCCOCCOCC(=O)O; Aib = CC(C)(N)C(=O)O
Experiments:
[1] = Proteolytic resistance to FasSSIF/Pancreatin; assay type: in vitro ADME; settings: simulated intestinal fluid
Procedure: A fresh suspension of FasSSIF/P (Fasted-State Simulated Intestinal Fluid+USP Pancreatin®) was prepared according to that described by Galia, Nicolaides, Hörter, Löbenberg, Reppas and Dressman: Pharm. Res. 15 (1998) 698-705, and USP XL requirements. The resulting preparation was used immediately without storage.
Peptide for evaluation (1.0 mg) was dissolved in pre-warmed FasSSIF without Pancreatin® (200 μL). To this fresh FasSSIF/Pancreatin® (100 μL) was added to initiate potential proteolysis. Following momentary vortexing of the reaction tube the mixture was incubated at 37° C. in a thermostatic water bath for the duration of the experiment. 25 μL aliquot of the co-incubated peptide-enzyme mixture was periodically withdrawn (t=0, 5, 10 15 and 30 min) and quenched immediately by addition to a solution of 10% TFA in 1:1 water/acetonitrile (75 μL) to arrest proteolytic activity. Quenched samples were centrifuged (7800 RPM, 3 mins) to pellet solids and 10 μL aliquots of the supernatant solution were analyzed using analytical RP-HPLC as follows: Analytical RP-HPLC method: Agilent Polaris C8-A column (4.6×100 mm, 3 micron) eluted with a linear binary gradient of 10-90% MeCN (0.1% TFA v/v) in water (0.1% TFA v/v) over either 10 or 15 mins at 1.5 mL min^−1 at 40° C. with detection by UV absorption at 210 nm. Manual integration (AUC) allowed estimation of remaining intact peptide over the time course of the experiment.

[2] = molecular target: human glucagon receptor (hGCGR) (Homo sapiens, UniProt P47871); assay: cAMP production (HTRF) in CHO cells expressing hGCGR; assay type: cell-based; parameters: expressed in transfected cells; settings: geometric mean, read-out: hGluc-R EC50
human glucagon receptor (hGCGR), sequence (P47871 26-477): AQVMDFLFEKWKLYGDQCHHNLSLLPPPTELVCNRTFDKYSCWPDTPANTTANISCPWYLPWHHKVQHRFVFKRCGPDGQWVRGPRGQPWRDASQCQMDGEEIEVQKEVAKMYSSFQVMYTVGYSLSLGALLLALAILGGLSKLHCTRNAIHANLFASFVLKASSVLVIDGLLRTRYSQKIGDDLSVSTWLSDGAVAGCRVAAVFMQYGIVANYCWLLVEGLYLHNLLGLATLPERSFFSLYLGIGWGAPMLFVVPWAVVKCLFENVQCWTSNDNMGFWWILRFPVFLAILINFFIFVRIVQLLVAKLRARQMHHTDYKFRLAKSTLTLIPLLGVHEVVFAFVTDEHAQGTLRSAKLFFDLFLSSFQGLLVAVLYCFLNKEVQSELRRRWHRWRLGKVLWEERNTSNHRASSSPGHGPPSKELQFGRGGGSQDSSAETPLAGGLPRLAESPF
Procedure, shortened: (§1)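 Potency values represent EC50 from 4-parameter logistic curves of HTRF % Delta F signal. Receptor-expressing CHO cells (hGCGR 2×10^5 cells/mL, hGLP-1R 1×10^5 cells/mL) were exposed for 30 min at room temperature before two-step cAMP detection.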

[3] = molecular target: human GLP-1 receptor (hGLP-1R) (Homo sapiens, UniProt P43220); assay: cAMP production (HTRF) in CHO cells expressing hGLP-1R; assay type: cell-based; parameters: expressed in transfected cells; settings: for EC50: geometric mean, read-out: hGLP-1R EC50; for % Relative Potency Ratio: % GLP-1R activity relative to GLP-1 / % GlucR activity relative to glucagon
human GLP-1 receptor (hGLP-1R), sequence (P43220 24-463): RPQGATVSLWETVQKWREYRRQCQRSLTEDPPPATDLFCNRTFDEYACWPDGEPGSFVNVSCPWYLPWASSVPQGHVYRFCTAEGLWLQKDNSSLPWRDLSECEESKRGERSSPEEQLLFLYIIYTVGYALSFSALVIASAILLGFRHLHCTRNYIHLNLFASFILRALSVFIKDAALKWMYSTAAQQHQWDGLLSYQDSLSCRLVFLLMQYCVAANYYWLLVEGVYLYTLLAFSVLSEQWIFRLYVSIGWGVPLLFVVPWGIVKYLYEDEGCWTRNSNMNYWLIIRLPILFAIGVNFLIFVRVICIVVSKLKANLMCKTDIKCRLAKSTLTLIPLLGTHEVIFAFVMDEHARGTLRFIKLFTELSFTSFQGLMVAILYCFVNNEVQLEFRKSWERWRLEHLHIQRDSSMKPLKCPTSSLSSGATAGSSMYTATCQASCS
Procedure, shortened: as §1

[4] = Mouse acute food intake study; assay type: in vivo; settings: male C57Bl/6 mice, s.c., cumulative food intake at 24 hr vs vehicle
Procedure, shortened: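 Single-housed male C57Bl/6 mice (8-9 weeks on arrival), chow-fed, acclimated and sham-dosed ≥2 times, were fasted 6-8 h, then given vehicle or peptide subcutaneously at 5 mL/kg 1-2 h before lights out. Food intake was recorded automatically over 48 h and analysed as cumulative intake.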

[5] = Table 6, peptides modified at position 17, cAMP in CHO hGCGR cells
[6] = Table 6, peptides modified at position 17, cAMP in CHO hGLP-1R cells

Row | remaining at 0.5 h, 3.3 mg/mL [1] | EC50 [2, 5] | EC50 [3, 6] | % Relative Potency Ratio ([3]; Table 6) | EC50 ([2]; cAMP, CHO cells, 0.1% BSA) | % Relative Potency Ratio [3] | EC50 ([3]; cAMP, CHO cells, 0.1% BSA) | SMILES | 24 hr % Vehicle Food Intake ([4]; dose 10 nmol/kg) | other results
1 | – | – | – | – | 0.0274 nM | 1.7 | 0.031 nM | CC[C@H](C)[C@H](NC(=O)C(C)(C)NC(=O)[C@H](CCCCNC(=O)COCCOCCNC(=O)COCCOCCNC(=O)CC[C@H](NC(=O)CCCCCCCCCCCCCCCCC(=O)O)C(=O)O)NC(=O)[C@@H](NC(=O)[C@H](Cc1ccccc1)NC(=O)[C@H](CC(=O)O)NC(=O)[C@H](CCC(N)=O)NC(=O)[C@H](C)NC(=O)[C@H](C)NC(=O)[C@H](CCCNC(=N)N)NC(=O)[C@H](CO)NC(=O)[C@H](CC(=O)O)NC(=O)[C@H](CC(C)C)NC(=O)[C@](C)(Cc1ccccc1)NC(=O)[C@H](CCCCN)NC(=O)[C@H](CO)NC(=O)[C@@H](NC(=O)[C@H](CC(=O)O)NC(=O)[C@H](CO)NC(=O)[C@@H](NC(=O)[C@](C)(Cc1ccccc1)NC(=O)[C@H](CO)NC(=O)CNC(=O)[C@H](Cc1c[nH]cn1)NC(=O)C(C)(C)NC(=O)[C@@H](N)Cc1c[nH]cn1)[C@@H](C)O)C(C)C)C(C)C)C(=O)N[C@@H](C)C(=O)N[C@@H](CC(N)=O)C(=O)N[C@H](C(N)=O)[C@@H](C)O [Peptide 366] (H-H[Aib]HGS[αMeF]TSDVSK[αMeF]LDSRAAQDFVK([AEEA-AEEA-γGlu-C18 diacid])[Aib]IANT-NH2; N-terminus assumed) | 83.5% | –
2 | – | – | – | – | 0.155 nM | 1.4 | 0.225 nM | CC[C@H](C)[C@H](NC(=O)C(C)(C)NC(=O)[C@H](CCCCNC(=O)COCCOCCNC(=O)COCCOCCNC(=O)CC[C@H](NC(=O)CC[C@H](NC(=O)CCCCCCCCCCCCCCCCCCC(=O)O)C(=O)O)C(=O)O)NC(=O)[C@@H](NC(=O)[C@](C)(Cc1ccccc1)NC(=O)[C@H](CC(=O)O)NC(=O)[C@H](CCC(N)=O)NC(=O)[C@H](C)NC(=O)[C@H](C)NC(=O)[C@H](CCCNC(=N)N)NC(=O)[C@H](CO)NC(=O)[C@H](CC(=O)O)NC(=O)[C@H](CC(C)C)NC(=O)[C@](C)(Cc1ccccc1)NC(=O)[C@H](CCCCN)NC(=O)[C@H](CO)NC(=O)[C@@H](NC(=O)[C@H](CC(=O)O)NC(=O)[C@H](CO)NC(=O)[C@@H](NC(=O)[C@](C)(Cc1ccccc1)NC(=O)[C@H](CO)NC(=O)CNC(=O)[C@H](Cc1c[nH]cn1)NC(=O)C(C)(C)NC(=O)[C@@H](N)Cc1c[nH]cn1)[C@@H](C)O)C(C)C)C(C)C)C(=O)N[C@@H](C)C(=O)N[C@@H](CC(N)=O)C(=O)N[C@H](C(N)=O)[C@@H](C)O [Peptide 375] (H-H[Aib]HGS[αMeF]TSDVSK[αMeF]LDSRAAQD[αMeF]VK([AEEA-AEEA-γGlu-γGlu-C20 diacid])[Aib]IANT-NH2; N-terminus assumed) | 66.0% | –

More lines, now with the values behind:

Row | SMILES | remaining at 0.5 h, 3.3 mg/mL [1] | EC50 [2, 5] | EC50 [3, 6] | % Relative Potency Ratio ([3]; Table 6) | EC50 ([2]; cAMP, CHO cells, 0.1% BSA) | % Relative Potency Ratio [3] | EC50 ([3]; cAMP, CHO cells, 0.1% BSA) | 24 hr % Vehicle Food Intake ([4]; dose 10 nmol/kg) | other results
3 | CCCCCCCCCCCCCCCCCC(=O)N[C@@H](CCC(=O)N[C@@H](CCC(=O)NCCOCCOCCC(=O)NCCOCCOCCC(=O)NCCCC[C@H](NC(=O)[C@H](CO)NC(=O)[C@H](CC(=O)O)NC(=O)[C@H](CC(C)C)NC(=O)[C@@H](NC(=O)[C@H](CCCCN)NC(=O)[C@H](CO)NC(=O)[C@@H](NC(=O)[C@H](CC(=O)O)NC(=O)[C@H](CO)NC(=O)[C@@H](NC(=O)[C@](C)(Cc1ccccc1)NC(=O)[C@H](CO)NC(=O)CNC(=O)[C@H](CCC(N)=O)NC(=O)[C@H](CO)NC(=O)[C@@H](N)Cc1c[nH]cn1)[C@@H](C)O)C(C)C)C(c1ccccc1)c1ccccc1)C(=O)N[C@@H](C)C(=O)N[C@@H](C)C(=O)N[C@@H](CCC(N)=O)C(=O)N[C@@H](CC(=O)O)C(=O)N[C@@](C)(Cc1ccccc1)C(=O)N[C@H](C(=O)N[C@@H](CCC(=O)O)C(=O)NC(C)(C)C(=O)N[C@@H](CC(C)C)C(=O)N[C@H](C(=O)N[C@@H](CO)C(=O)NCC(N)=O)[C@@H](C)CC)C(C)C)C(=O)O)C(=O)O [Peptide 48] (H-HSQGS[αMeF]TSDVSK[Dip]LDSK([PEG2-PEG2-γGlu-γGlu-Stearoyl])AAQD[αMeF]VE[Aib]LISG-NH2; N-terminus assumed) | 94% | 0.0432 nM | 0.0199 nM | 4.3 | – | – | – | – | –
4 | CCCCCCCCCCCCCCCCCC(=O)N[C@@H](CCC(=O)N[C@@H](CCC(=O)NCCOCCOCCC(=O)NCCOCCOCCC(=O)NCCCC[C@H](NC(=O)[C@H](CO)NC(=O)[C@H](CC(=O)O)NC(=O)[C@H](CC(C)C)NC(=O)[C@@H](NC(=O)[C@H](CCCCN)NC(=O)[C@H](CO)NC(=O)[C@@H](NC(=O)[C@H](CC(=O)O)NC(=O)[C@H](CO)NC(=O)[C@@H](NC(=O)[C@](C)(Cc1ccccc1)NC(=O)[C@H](CO)NC(=O)CNC(=O)[C@H](CCC(N)=O)NC(=O)[C@H](CO)NC(=O)[C@@H](N)Cc1c[nH]cn1)[C@@H](C)O)C(C)C)C(c1ccccc1)c1ccccc1)C(=O)N[C@@H](C)C(=O)N[C@@H](C)C(=O)N[C@@H](CCC(N)=O)C(=O)N[C@@H](CC(=O)O)C(=O)N[C@@](C)(Cc1ccccc1)C(=O)N[C@H](C(=O)N[C@@H](CCC(=O)O)C(=O)NC(C)(C)C(=O)N[C@@H](CC(C)C)C(=O)N[C@@H](CC(C)C)C(=O)N[C@@H](CC(N)=O)C(=O)N[C@H](C(N)=O)[C@@H](C)O)C(C)C)C(=O)O)C(=O)O [Peptide 51] (H-HSQGS[αMeF]TSDVSK[Dip]LDSK([PEG2-PEG2-γGlu-γGlu-Stearoyl])AAQD[αMeF]VE[Aib]LLNT-NH2; N-terminus assumed) | 91% | 0.0419 nM | 0.0181 nM | 4.6 | – | – | – | – | –
5 | CC[C@H](C)[C@H](NC(=O)C(C)(C)NC(=O)[C@H](C)NC(=O)[C@@H](NC(=O)[C@](C)(Cc1ccccc1)NC(=O)[C@H](CC(=O)O)NC(=O)[C@H](CCCCNC(=O)COCCOCCNC(=O)COCCOCCNC(=O)CC[C@H](NC(=O)CC[C@H](NC(=O)CCCCCCCCCCCCCCCCCCC(=O)O)C(=O)O)C(=O)O)NC(=O)[C@H](C)NC(=O)[C@H](C)NC(=O)[C@H](CCCNC(=N)N)NC(=O)[C@H](CO)NC(=O)[C@H](CC(=O)O)NC(=O)[C@H](CC(C)C)NC(=O)[C@](C)(Cc1ccccc1)NC(=O)[C@H](CCCCN)NC(=O)[C@H](CO)NC(=O)[C@@H](NC(=O)[C@H](CC(=O)O)NC(=O)[C@H](CO)NC(=O)[C@@H](NC(=O)[C@](C)(Cc1ccccc1)NC(=O)[C@H](CO)NC(=O)CNC(=O)[C@H](Cc1c[nH]cn1)NC(=O)C(C)(C)NC(=O)[C@@H](N)Cc1c[nH]cn1)[C@@H](C)O)C(C)C)[C@@H](C)CC)C(=O)N[C@@H](C)C(=O)N[C@@H](CCC(=O)O)C(=O)N[C@H](C(N)=O)[C@@H](C)O [Peptide 302] (H-H[Aib]HGS[αMeF]TSDVSK[αMeF]LDSRAAK([AEEA-AEEA-γGlu-γGlu-C20 diacid])D[αMeF]IA[Aib]IAET-NH2) | – | – | – | – | – | – | – | – | EC50 ([2]; Table 7, peptides modified at position 20, cAMP in CHO hGCGR cells): 0.271 nM; EC50 ([3]; Table 7, peptides modified at position 20, cAMP in CHO hGLP-1R cells): 0.151 nM; % Relative Potency Ratio ([3]; Table 7): 3.5; 24 hr % Vehicle Food Intake ([4]; dose 30 nmol/kg): 46.4%
6 | CC[C@H](C)[C@H](NC(=O)[C@H](Cc1c[nH]c2ccccc12)NC(=O)[C@H](CCCCNC(=O)COCCOCCNC(=O)COCCOCCNC(=O)CC[C@H](NC(=O)CC[C@H](NC(=O)CCCCCCCCCCCCCCCCC(=O)O)C(=O)O)C(=O)O)NC(=O)[C@@H](NC(=O)[C@H](Cc1ccccc1)NC(=O)[C@H](CC(=O)O)NC(=O)[C@H](CCC(N)=O)NC(=O)[C@H](C)NC(=O)[C@H](C)NC(=O)[C@H](CCCNC(=N)N)NC(=O)[C@H](CO)NC(=O)[C@H](CC(=O)O)NC(=O)[C@H](CC(C)C)NC(=O)[C@](C)(Cc1ccccc1)NC(=O)[C@H](CCCCN)NC(=O)[C@H](CO)NC(=O)[C@@H](NC(=O)[C@H](CC(=O)O)NC(=O)[C@H](CO)NC(=O)[C@@H](NC(=O)[C@](C)(Cc1ccccc1)NC(=O)[C@H](CO)NC(=O)CNC(=O)[C@H](Cc1c[nH]cn1)NC(=O)C(C)(C)NC(=O)[C@@H](N)Cc1c[nH]cn1)[C@@H](C)O)C(C)C)C(C)C)C(=O)N[C@@H](C)C(=O)N[C@@H](CC(N)=O)C(=O)N[C@H](C(=O)NCC(=O)NCC(N)=O)[C@@H](C)O [Peptide 364] (H-H[Aib]HGS[αMeF]TSDVSK[αMeF]LDSRAAQDFVK([AEEA-AEEA-γGlu-γGlu-C18 diacid])WIANTGG-NH2) | – | – | – | – | 0.0304 nM | 2.6 | 0.0234 nM | 63.7% | –

From patent US20250353891A1 (MEDIMMUNE LIMITED, priority 2022, published 2025)
